In paper PMC11062922 (Nature Chemical Biology, 2023):
One block for each compound: values may come before it.

Tests used:
FRK = target: T1, FRK (Homo sapiens, UniProt P42685); experiment: Kinobeads two-dose competition binding: FRK; settings: read-out: Lestaurtinib Drugmatrix value, Gene Name FRK; target FRK; each column = one Lestaurtinib control replicate (batch_R1-R3)
T1 construct: endogenous in cells

FYN = target: T2, FYN (Homo sapiens, UniProt P06241); experiment: Kinobeads two-dose competition binding: FYN; settings: read-out: Lestaurtinib Drugmatrix value, Gene Name FYN; target FYN; each column = one Lestaurtinib control replicate (batch_R1-R3)
T2 construct: endogenous in cells

CSNK1E = target: T3, CSNK1E (Homo sapiens, UniProt P49674); experiment: Kinobeads full dose-response competition binding: CSNK1E; settings: Gene Name CSNK1E
T3 construct: endogenous in cells

MAPKAPK2 = target: T4, MAPKAPK2 (Homo sapiens, UniProt P49137); experiment: Kinobeads full dose-response competition binding: MAPKAPK2; settings: Gene Name MAPKAPK2
T4 construct: endogenous in cells

[1] = target: T5, endogenous kinases and other proteins enriched by Kinobeads from mixed cancer cell lysates (Homo sapiens, UniProt O00444); experiment: Kinobeads pulldown, full dose-response (eight doses); format: binding; settings: target PLK4;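 note: competition with Kinobeads ε after inhibitor preincubation in lysate (5 mg/ml protein) for 45 min at 4 °C, DMSO control, doses 0.3–1,000 nM, label-free LC–MS/MS quantification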
T5 construct: endogenous in cells

[2] = target: T6, endogenous kinases and other proteins enriched by Kinobeads from mixed cancer cell lysates (Homo sapiens, UniProt O15530); experiment: as above; format: binding; settings: target PDPK1;PDPK2P
T6 construct: endogenous in cells

[3] = target: T7, endogenous kinases and other proteins enriched by Kinobeads from mixed cancer cell lysates (Homo sapiens, UniProt O60285); experiment: as above; format: binding; settings: target NUAK1
T7 construct: endogenous in cells

[4] = target: T8, endogenous kinases and other proteins enriched by Kinobeads from mixed cancer cell lysates (Homo sapiens, UniProt O94804); experiment: as above; format: binding; settings: target STK10
T8 construct: endogenous in cells

[5] = target: T9, endogenous kinases and other proteins enriched by Kinobeads from mixed cancer cell lysates (Homo sapiens, UniProt O94806); experiment: as above; format: binding; settings: target PRKD3
T9 construct: endogenous in cells

[6] = target: T10, endogenous kinases and other proteins enriched by Kinobeads from mixed cancer cell lysates (Homo sapiens, UniProt P11274); experiment: as above; format: binding; settings: target BCR
T10 construct: endogenous in cells

[7] = target: T11, endogenous kinases and other proteins enriched by Kinobeads from mixed cancer cell lysates (Homo sapiens, UniProt P35916); experiment: as above; format: binding; settings: target FLT4
T11 construct: endogenous in cells

[8] = target: T12, endogenous kinases and other proteins enriched by Kinobeads from mixed cancer cell lysates (Homo sapiens, UniProt P37173); experiment: as above; format: binding; settings: target TGFBR2; read-out: apparent Kd
T12 construct: endogenous in cells

[9] = target: T13, endogenous kinases and other proteins enriched by Kinobeads from mixed cancer cell lysates (Homo sapiens, UniProt P51946); experiment: as above; format: binding; settings: target CCNH
T13 construct: endogenous in cells

[10] = target: T14, endogenous kinases and other proteins enriched by Kinobeads from mixed cancer cell lysates (Homo sapiens, UniProt Q12851); experiment: as above; format: binding; settings: target MAP4K2
T14 construct: to maximize the representation of endogenous proteins; endogenous in cells

[11] = target: T15, endogenous kinases and other proteins enriched by Kinobeads from mixed cancer cell lysates (Homo sapiens, UniProt Q13873); experiment: as above; format: binding; settings: target BMPR2
T15 construct: endogenous in cells

[12] = target: T16, endogenous kinases and other proteins enriched by Kinobeads from mixed cancer cell lysates (Homo sapiens, UniProt Q15375); experiment: as above; format: binding; settings: target EPHA7
T16 construct: endogenous in cells

[13] = target: T17, endogenous kinases and other proteins enriched by Kinobeads from mixed cancer cell lysates (Homo sapiens, UniProt Q15831); experiment: as above; format: binding; settings: target STK11
T17 construct: endogenous in cells

[14] = target: T18, endogenous kinases and other proteins enriched by Kinobeads from mixed cancer cell lysates (Homo sapiens, UniProt Q2M2I8); experiment: as above; format: binding; settings: target AAK1
T18 construct: to maximize the representation of endogenous proteins; endogenous in cells

[15] = target: T19, endogenous kinases and other proteins enriched by Kinobeads from mixed cancer cell lysates (Homo sapiens, UniProt Q7KZI7); experiment: as above; format: binding; settings: target MARK2
T19 construct: endogenous in cells

[16] = target: T20, endogenous kinases and other proteins enriched by Kinobeads from mixed cancer cell lysates (Homo sapiens, UniProt Q96GD4); experiment: as above; format: binding; settings: target AURKB
T20 construct: endogenous in cells

[17] = target: T21, endogenous kinases and other proteins enriched by Kinobeads from mixed cancer cell lysates (Homo sapiens, UniProt Q96L34); experiment: as above; format: binding; settings: target MARK4
T21 construct: endogenous in cells

[18] = target: T22, endogenous kinases and other proteins enriched by Kinobeads from mixed cancer cell lysates (Homo sapiens, UniProt Q96PY6); experiment: as above; format: binding; settings: target NEK1
T22 construct: endogenous in cells

[19] = target: T23, endogenous kinases and other proteins enriched by Kinobeads from mixed cancer cell lysates (Homo sapiens, UniProt Q9H2G2); experiment: as above; format: binding; settings: target SLK
T23 construct: endogenous in cells

[20] = target: T24, endogenous kinases and other proteins enriched by Kinobeads from mixed cancer cell lysates (Homo sapiens, UniProt Q9NSY1); experiment: as above; format: binding; settings: target BMP2K
T24 construct: endogenous in cells

[21] = target: T25, endogenous kinases and other proteins enriched by Kinobeads from mixed cancer cell lysates (Homo sapiens, UniProt Q9NWZ3); experiment: as above; format: binding; settings: target IRAK4
T25 construct: endogenous in cells

[22] = target: T26, endogenous kinases and other proteins enriched by Kinobeads from mixed cancer cell lysates (Homo sapiens, UniProt Q9P289); experiment: as above; format: binding; settings: target STK26
T26 construct: endogenous in cells

[23] = EC50 with Correction, doses in nM, read-out: apparent Kd
[24] = eight-dose curve fit, doses in nM

T3 sequence (P49674 whole entry): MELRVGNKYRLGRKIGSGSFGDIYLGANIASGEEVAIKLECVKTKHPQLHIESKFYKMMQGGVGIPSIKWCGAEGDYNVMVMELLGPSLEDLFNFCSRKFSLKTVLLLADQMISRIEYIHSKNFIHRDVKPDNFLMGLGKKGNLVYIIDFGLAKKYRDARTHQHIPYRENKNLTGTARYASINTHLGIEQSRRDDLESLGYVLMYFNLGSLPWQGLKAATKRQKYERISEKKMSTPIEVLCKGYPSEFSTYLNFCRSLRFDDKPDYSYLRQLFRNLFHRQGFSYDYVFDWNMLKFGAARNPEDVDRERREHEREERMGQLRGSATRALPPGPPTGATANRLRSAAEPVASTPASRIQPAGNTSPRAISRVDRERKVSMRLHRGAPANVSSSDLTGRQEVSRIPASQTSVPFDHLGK
T4 sequence (P49137 whole entry): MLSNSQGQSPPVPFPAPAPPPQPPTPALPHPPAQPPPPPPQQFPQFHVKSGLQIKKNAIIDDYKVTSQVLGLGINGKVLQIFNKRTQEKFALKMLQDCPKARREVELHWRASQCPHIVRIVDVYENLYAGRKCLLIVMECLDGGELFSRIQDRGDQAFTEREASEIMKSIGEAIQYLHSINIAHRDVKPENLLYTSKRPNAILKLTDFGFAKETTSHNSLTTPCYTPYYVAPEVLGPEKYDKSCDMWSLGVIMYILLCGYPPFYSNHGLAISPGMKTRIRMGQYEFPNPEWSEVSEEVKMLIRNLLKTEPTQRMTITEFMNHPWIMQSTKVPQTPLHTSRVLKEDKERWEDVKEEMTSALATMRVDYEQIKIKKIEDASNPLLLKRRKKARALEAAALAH
T17 sequence (Q15831 whole entry): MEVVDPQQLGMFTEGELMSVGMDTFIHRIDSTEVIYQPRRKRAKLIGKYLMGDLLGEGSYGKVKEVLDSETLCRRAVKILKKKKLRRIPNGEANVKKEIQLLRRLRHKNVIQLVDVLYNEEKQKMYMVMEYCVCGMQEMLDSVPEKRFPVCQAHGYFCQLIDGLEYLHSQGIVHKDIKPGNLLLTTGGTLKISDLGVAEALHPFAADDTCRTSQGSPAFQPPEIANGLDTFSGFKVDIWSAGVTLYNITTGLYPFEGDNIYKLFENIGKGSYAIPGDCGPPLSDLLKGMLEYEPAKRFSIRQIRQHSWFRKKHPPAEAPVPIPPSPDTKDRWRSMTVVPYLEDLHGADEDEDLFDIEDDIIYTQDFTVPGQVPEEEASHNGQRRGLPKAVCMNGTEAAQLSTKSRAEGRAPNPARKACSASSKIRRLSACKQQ
T22 sequence (Q96PY6 whole entry): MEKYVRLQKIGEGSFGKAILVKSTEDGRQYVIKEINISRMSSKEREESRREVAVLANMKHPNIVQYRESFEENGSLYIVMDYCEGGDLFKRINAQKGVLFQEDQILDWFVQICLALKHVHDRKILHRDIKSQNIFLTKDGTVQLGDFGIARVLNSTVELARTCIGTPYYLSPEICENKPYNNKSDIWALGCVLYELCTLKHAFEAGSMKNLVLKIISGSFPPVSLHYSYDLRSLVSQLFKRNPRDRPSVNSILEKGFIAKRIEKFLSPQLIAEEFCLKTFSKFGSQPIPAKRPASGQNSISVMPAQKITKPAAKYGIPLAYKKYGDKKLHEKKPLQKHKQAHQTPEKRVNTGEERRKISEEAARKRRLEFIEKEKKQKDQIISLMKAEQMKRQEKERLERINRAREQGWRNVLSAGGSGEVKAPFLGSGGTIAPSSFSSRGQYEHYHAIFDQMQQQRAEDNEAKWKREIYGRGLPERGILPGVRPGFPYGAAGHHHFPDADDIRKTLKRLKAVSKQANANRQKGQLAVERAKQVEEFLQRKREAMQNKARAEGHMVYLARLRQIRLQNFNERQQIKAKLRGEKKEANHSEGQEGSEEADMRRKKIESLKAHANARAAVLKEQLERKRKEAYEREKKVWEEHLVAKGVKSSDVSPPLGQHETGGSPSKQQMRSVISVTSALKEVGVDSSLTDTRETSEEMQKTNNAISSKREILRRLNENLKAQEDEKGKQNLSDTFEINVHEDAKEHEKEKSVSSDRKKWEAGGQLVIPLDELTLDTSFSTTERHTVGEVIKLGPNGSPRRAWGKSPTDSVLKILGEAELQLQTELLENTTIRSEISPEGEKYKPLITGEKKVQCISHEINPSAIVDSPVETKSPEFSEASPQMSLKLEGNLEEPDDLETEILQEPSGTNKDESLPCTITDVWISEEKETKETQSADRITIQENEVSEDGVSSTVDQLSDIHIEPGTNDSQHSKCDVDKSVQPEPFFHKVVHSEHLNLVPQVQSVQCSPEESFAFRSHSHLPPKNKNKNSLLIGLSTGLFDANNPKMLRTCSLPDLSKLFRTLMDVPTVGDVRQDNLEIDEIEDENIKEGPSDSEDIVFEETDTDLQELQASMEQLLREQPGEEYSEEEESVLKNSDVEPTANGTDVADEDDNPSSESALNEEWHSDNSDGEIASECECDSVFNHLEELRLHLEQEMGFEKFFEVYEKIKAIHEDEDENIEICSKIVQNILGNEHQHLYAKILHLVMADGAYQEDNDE
T25 sequence (Q9NWZ3 whole entry): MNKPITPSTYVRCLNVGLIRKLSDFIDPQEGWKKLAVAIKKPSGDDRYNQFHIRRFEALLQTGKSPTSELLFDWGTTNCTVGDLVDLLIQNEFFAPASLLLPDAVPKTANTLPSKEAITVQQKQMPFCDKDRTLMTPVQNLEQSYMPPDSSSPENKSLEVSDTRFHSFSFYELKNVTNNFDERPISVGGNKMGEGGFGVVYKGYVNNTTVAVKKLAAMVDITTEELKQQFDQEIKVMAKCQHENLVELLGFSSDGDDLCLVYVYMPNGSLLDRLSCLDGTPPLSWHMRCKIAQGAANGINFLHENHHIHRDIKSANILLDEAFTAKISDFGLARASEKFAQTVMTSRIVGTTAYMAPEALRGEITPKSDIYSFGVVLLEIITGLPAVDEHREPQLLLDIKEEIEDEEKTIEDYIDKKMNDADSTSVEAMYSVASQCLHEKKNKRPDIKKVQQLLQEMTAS
T7 sequence (O60285 whole entry): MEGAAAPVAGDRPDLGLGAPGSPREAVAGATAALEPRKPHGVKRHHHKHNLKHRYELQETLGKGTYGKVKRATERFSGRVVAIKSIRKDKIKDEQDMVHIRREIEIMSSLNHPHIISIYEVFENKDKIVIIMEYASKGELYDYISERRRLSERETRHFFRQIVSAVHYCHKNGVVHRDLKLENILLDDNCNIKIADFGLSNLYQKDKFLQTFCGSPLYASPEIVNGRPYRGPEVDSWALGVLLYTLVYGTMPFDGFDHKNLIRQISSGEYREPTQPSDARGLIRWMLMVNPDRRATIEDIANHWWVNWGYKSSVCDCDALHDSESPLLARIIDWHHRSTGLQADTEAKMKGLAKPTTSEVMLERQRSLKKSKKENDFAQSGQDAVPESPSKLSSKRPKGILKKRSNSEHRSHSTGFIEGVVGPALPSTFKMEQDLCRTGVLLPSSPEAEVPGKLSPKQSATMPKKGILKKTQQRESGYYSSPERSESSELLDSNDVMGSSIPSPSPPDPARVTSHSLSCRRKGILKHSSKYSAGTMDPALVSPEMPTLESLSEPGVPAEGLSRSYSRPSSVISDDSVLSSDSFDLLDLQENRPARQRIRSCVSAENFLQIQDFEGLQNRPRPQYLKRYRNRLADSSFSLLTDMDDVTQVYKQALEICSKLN
T14 sequence (Q12851 whole entry): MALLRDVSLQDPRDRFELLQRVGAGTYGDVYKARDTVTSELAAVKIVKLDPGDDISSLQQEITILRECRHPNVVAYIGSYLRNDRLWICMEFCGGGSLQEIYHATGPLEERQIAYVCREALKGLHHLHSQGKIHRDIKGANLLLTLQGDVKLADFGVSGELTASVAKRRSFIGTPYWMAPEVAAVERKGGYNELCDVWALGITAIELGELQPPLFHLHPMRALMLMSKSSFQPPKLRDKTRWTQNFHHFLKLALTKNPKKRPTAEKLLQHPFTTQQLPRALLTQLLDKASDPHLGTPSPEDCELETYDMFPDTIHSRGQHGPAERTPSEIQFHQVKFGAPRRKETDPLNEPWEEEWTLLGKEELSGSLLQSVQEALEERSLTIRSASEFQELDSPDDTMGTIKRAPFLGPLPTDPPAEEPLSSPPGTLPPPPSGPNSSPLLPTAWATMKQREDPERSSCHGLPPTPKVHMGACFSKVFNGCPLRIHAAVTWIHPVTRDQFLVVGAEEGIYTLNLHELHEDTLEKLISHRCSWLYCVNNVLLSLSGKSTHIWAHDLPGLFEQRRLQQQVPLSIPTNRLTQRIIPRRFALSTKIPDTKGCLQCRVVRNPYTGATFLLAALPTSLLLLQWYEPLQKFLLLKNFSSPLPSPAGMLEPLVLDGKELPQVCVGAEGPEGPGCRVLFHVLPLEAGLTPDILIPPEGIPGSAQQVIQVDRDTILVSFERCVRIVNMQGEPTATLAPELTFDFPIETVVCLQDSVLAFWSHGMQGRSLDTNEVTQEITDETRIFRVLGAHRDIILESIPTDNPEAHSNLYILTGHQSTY
T13 sequence (P51946 whole entry): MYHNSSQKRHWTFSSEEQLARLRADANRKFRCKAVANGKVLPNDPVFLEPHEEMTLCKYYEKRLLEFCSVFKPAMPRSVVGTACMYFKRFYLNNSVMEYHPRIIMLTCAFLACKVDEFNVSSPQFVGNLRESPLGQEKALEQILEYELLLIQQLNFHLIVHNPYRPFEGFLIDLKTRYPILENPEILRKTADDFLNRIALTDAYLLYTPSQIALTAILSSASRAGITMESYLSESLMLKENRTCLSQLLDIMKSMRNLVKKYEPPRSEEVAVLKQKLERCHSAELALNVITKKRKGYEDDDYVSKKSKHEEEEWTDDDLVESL

SMILES: C[C@]12O[C@H](C[C@]1(O)CO)n1c3ccccc3c3c4c(c5c6ccccc6n2c5c31)CNC4=O [Lestaurtinib]
potency estimated from few doses (FRK): 0.751 µM
potency estimated from few doses (FYN): 0.817 µM

SMILES: NCc1ccc(-c2nc(-c3ccncc3)c(-c3ccc(Cl)c(O)c3)[nH]2)cc1 [SB-476429-A]
Relative Intensity 0.3nM (CSNK1E; 0.3nM compound, DMSO = 1): 1.09
Relative Intensity 1nM (CSNK1E; 1nM compound, DMSO = 1): 1.082
Relative Intensity 3nM (CSNK1E; 3nM compound, DMSO = 1): 1.034
Relative Intensity 10nM (CSNK1E; 10nM compound, DMSO = 1): 1.047
Relative Intensity 30nM (CSNK1E; 30nM compound, DMSO = 1): 0.8419
Relative Intensity 100nM (CSNK1E; 100nM compound, DMSO = 1): 0.9482
Relative Intensity 300nM (CSNK1E; 300nM compound, DMSO = 1): 0.7771
Relative Intensity 1000nM (CSNK1E; 1000nM compound, DMSO = 1): 0.494
Kd (CSNK1E; [23]): 642 nM
EC50 (CSNK1E; [24]): 642 nM
Relative Intensity 0.3nM (MAPKAPK2; 0.3nM compound, DMSO = 1): 1.233
Relative Intensity 1nM (MAPKAPK2; 1nM compound, DMSO = 1): 1.094
Relative Intensity 3nM (MAPKAPK2; 3nM compound, DMSO = 1): 1.023
Relative Intensity 10nM (MAPKAPK2; 10nM compound, DMSO = 1): 1.156
Relative Intensity 30nM (MAPKAPK2; 30nM compound, DMSO = 1): 0.8314
Relative Intensity 100nM (MAPKAPK2; 100nM compound, DMSO = 1): 0.6869
Relative Intensity 300nM (MAPKAPK2; 300nM compound, DMSO = 1): 0.5275
Relative Intensity 1000nM (MAPKAPK2; 1000nM compound, DMSO = 1): 0
Kd (MAPKAPK2; [23]): 174 nM
EC50 (MAPKAPK2; [24]): 174 nM

EC50 [1]: 0.148 µM
Kd ([1]; read-out: apparent Kd): 0.0772 µM
EC50 [2]: 0.639 µM
Kd ([2]; read-out: apparent Kd): 0.639 µM
EC50 [3]: 1.02 µM
Kd ([3]; read-out: apparent Kd): 0.312 µM
EC50 [4]: 0.725 µM
Kd ([4]; read-out: apparent Kd): 0.725 µM
EC50 [5]: 1.41 µM
Kd ([5]; read-out: apparent Kd): 1.18 µM
EC50 [6]: 1.02 µM
Kd ([6]; read-out: apparent Kd): 0.528 µM
EC50 [7]: 0.564 µM
Kd ([7]; read-out: apparent Kd): 0.308 µM
Kd [8]: 2.96 µM
EC50 [9]: 1.73 µM
Kd ([9]; read-out: apparent Kd): 1.58 µM
EC50 [10]: 0.595 µM
Kd ([10]; read-out: apparent Kd): 0.459 µM
EC50 [11]: 0.325 µM
Kd ([11]; read-out: apparent Kd): 0.257 µM
EC50 [12]: 0.81 µM
Kd ([12]; read-out: apparent Kd): 0.617 µM
EC50 [13]: 1.15 µM
Kd ([13]; read-out: apparent Kd): 1.15 µM
EC50 [14]: 0.997 µM
Kd ([14]; read-out: apparent Kd): 0.72 µM
EC50 [15]: 0.837 µM
Kd ([15]; read-out: apparent Kd): 0.762 µM
EC50 [16]: 0.161 µM
Kd ([16]; read-out: apparent Kd): 0.0867 µM
EC50 [17]: 1.05 µM
Kd ([17]; read-out: apparent Kd): 1.05 µM
EC50 [18]: 0.589 µM
Kd ([18]; read-out: apparent Kd): 0.529 µM
EC50 [19]: 0.516 µM
Kd ([19]; read-out: apparent Kd): 0.516 µM
EC50 [20]: 0.537 µM
Kd ([20]; read-out: apparent Kd): 0.456 µM
EC50 [21]: 0.718 µM
Kd ([21]; read-out: apparent Kd): 0.675 µM
EC50 [22]: 0.363 µM
Kd ([22]; read-out: apparent Kd): 0.275 µM
SMILES: Cn1cc(-c2nc(N[C@@H]3CCCC[C@@H]3N)c(F)c3c2C(=O)NC3)cn1 [TAK659]
